Assay results taken from patent publication US20260053171A1, “METHANOGEN INHIBITORS” (AGRIZERONZ LIMITED PARTNERSHIP, priority 2022, published 2026).

Test system: methane production in rumen fluid
Experiment: Rumen in vitro (RIV) assay, methane production from rumen fluid incubations
Format: cell-based, cattle
Conditions: Bos taurus, read-out: RIV % methane reduction +/− SD
In short: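 Rumen fluid from two fistulated cattle diluted 12 ml in 48 ml buffer with ryegrass substrate, incubated in sealed bottles at 39° C for 24-48 h in duplicate. Inhibitors added in DMF (stocks 1000-fold above highest assay level); total gas, methane and H2 measured automatically; 30 μM BES positive control, no-inhibitor negative control.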

Row | Structure (SMILES) | inhibition at 50 µM [%] | inhibition at 2 µM [%] | inhibition at 10 µM [%]
1 | O=C(O)CCC(=O)N1N=C(c2ccc(Cl)cc2)CC1c1cccc2nccnc12 (stereo not drawn) [Compound 33, 4-(3-(4-Chlorophenyl)-5-(quinoxalin-5-yl)-4,5-dihydro-1H-pyrazol-1-yl)-4-oxobutanoic acid] | 18.4 ± 3.7 |  | 
2 | CN(C)S(=O)(=O)NC(=O)CCC(=O)N1N=C(c2ccc(-c3ccccc3)cc2)CC1c1ccc2nccnc2c1 (stereo not drawn) [Compound 71, 4-(3-([1,1′-Biphenyl]-4-yl)-5-(quinoxalin-6-yl)-4,5-dihydro-1H-pyrazol-1-yl)-N—(N,N-dimethylsulfamoyl)-4-oxobutanamide] |  | < 5 | 70.7
3 | O=C(O)CCC(=O)N1N=C(c2ccc(-c3ccc(OC(F)(F)F)c(Cl)c3)cc2)CC1c1ccc2nccnc2c1 (stereo not drawn) [Compound 102, 4-(3-(3′-Chloro-4′-(trifluoromethoxy)-[1,1′-biphenyl]-4-yl)-5-(quinoxalin-6-yl)-4,5-dihydro-1H-pyrazol-1-yl)-4-oxobutanoic acid] |  |  | 52.8 ± 2.5
4 | O=C(O)CCC(=O)N1N=C(c2ccc(Cl)c(Cl)c2)CC1c1ccc2nccnc2c1 (stereo not drawn) [Compound 11, 4-(3-(3,4-Dichlorophenyl)-5-(quinoxalin-6-yl)-4,5-dihydro-1H-pyrazol-1-yl)-4-oxobutanoic acid] | 62.8 ± 3.4 |  | 
5 | O=C(O)CCC(=O)N1N=C(c2ccc(Br)cc2)CC1c1ccc2nccnc2c1 (stereo not drawn) [Compound 9, 4-(3-(4-Bromophenyl)-5-(quinoxalin-6-yl)-4,5-dihydro-1H-pyrazol-1-yl)-4-oxobutanoic acid] | 64.9 ± 1.9 |  | 
6 | O=C(O)CCC(=O)N1N=C(c2cccc(-c3cccc(OC(F)(F)F)c3)c2)CC1c1ccc2nccnc2c1 (stereo not drawn) [Compound 98, 4-Oxo-4-(5-(quinoxalin-6-yl)-3-(3′-(trifluoromethoxy)-[1,1′-biphenyl]-3-yl)-4,5-dihydro-1H-pyrazol-1-yl)butanoic acid] | 91 ± 2.7 |  | 15.6 ± 0.6
7 | O=C(O)CCC(=O)N1N=C(c2ccc(Cl)cc2)CC1c1ccc2c(c1)OC(F)(F)O2 (stereo not drawn) [Compound 38, 4-(3-(4-Chlorophenyl)-5-(2,2-difluorobenzo[d][1,3]dioxol-5-yl)-4,5-dihydro-1H-pyrazol-1-yl)-4-oxobutanoic acid] | 93.4 ± 0.5 |  | 55.8 ± 1.8
8 | O=C(CCC(=O)N1N=C(c2ccc(Cl)cc2)CC1c1ccc2nccnc2c1)NS(=O)(=O)N1CCCC1 (stereo not drawn) [Compound 128, 4-(3-(4-Chlorophenyl)-5-(quinoxalin-6-yl)-4,5-dihydro-1H-pyrazol-1-yl)-4-oxo-N-(pyrrolidin-1-ylsulfonyl) butanamide] |  |  | 53 ± 5.7
9 | O=C(O)CCC(=O)N1N=C(c2ccc(-c3ccc4c(c3)OC(F)(F)O4)cc2)CC1c1ccc2nccnc2c1 (stereo not drawn) [Compound 104, 4-(3-(4-(2,2-Difluorobenzo[d][1,3]dioxol-5-yl)phenyl)-5-(quinoxalin-6-yl)-4,5-dihydro-1H-pyrazol-1-yl)-4-oxobutanoic acid] |  |  | 41.9 ± 8.9
10 | O=C(O)CCC(=O)N1N=C(c2ccc(Oc3ccccc3)cc2)CC1c1ccc2nccnc2c1 (stereo not drawn) [Compound 7, 4-Oxo-4-(3-(4-phenoxyphenyl)-5-(quinoxalin-6-yl)-4,5-dihydro-1H-pyrazol-1-yl)butanoic acid] | 66.4 ± 14.7 |  | 30.7 ± 3.6
11 | O=C(O)CCC(=O)N1N=C(c2ccc(Cl)cc2)CC1c1ccc2cccnc2c1 (stereo not drawn) [Compound 34, 4-(3-(4-Chlorophenyl)-5-(quinolin-7-yl)-4,5-dihydro-1H-pyrazol-1-yl)-4-oxobutanoic acid] | 22 ± 2.1 |  | 
12 | O=C(CCC(=O)N1N=C(c2ccc(Cl)cc2)CC1c1ccc2nccnc2c1)NS(=O)(=O)c1ccccc1 (stereo not drawn) [Compound 70, 4-(3-(4-Chlorophenyl)-5-(quinoxalin-6-yl)-4,5-dihydro-1H-pyrazol-1-yl)-4-oxo-N-(phenylsulfonyl) butanamide] |  | 27.1 ± 13.1 | 88.9 ± 1.5
13 | COc1ccc(C2CC(c3ccc(Cl)cc3)=NN2C(=O)CCC(=O)O)cc1O (stereo not drawn) [Compound 44, 4-(3-(4-Chlorophenyl)-5-(3-hydroxy-4-methoxyphenyl)-4,5-dihydro-1H-pyrazol-1-yl)-4-oxobutanoic acid] | 31.3 ± 0.8 |  | 
